Reference: patent US5371102A, “Compositions and methods of inhibiting thyroid activity” (priority 1993, dated 1994)

Tests used:
LPX and TPX = test: suicide inhibition of peroxidases (summary statements); assay type: biochemical
peroxidase = test: peroxidase/H2O2/I- triiodide formation with DMIT; assay type: biochemical; conditions: H2O2 and I-, varying quantities of DMIT
Method: DMIT was synthesized according to the published method by Maier, Helv. Chim. Acta, Vol. 53, p. 1417 (1970). Varying quantities of DMIT were incubated with peroxidase, H2 O2 and I^-. Triiodide formation was observed spectrophotometrically as a function of time. […] An initial lag phase was dependent on the amount of thione used, followed by a rate increase to approximately the control rate.

LPX [1] = biological target: T1, LPX (Bos taurus, UniProt P80025); test: LPX iodide ion oxidation activity after incubation and dilution; assay type: biochemical, bovine; conditions: LPX/hydrogen peroxide, absence of iodide ion
T1 construct: purchased Sigma Chemical Company
Source text: (§1) Materials used in the examples below were obtained from the following sources. Bovine LPX, bovine liver catalase, glucose oxidase, 30% hydrogen peroxide, glucose, guaiacol, ABTS and deuterium oxide were purchased from Sigma Chemical Company. Selenium dioxide, MBI ^13 CH3 I and PBA were purchased from Aldrich Chemical Company and PBA was purified as previously described by Fieset et al., Reagents for Organic Synthesis, Vol. I, pp.135-139, John Wiley and Sons, N.Y. (1967). LPX purity was checked by PAGE, as described by Doerge, D.R., et al. in, Biochem. Pharmacol., Vol.36, pp.972-974 (1986). TPX was purified from hog thyroids obtained from a local slaughterhouse by published procedures. Doerge & Takazowa, Chemical Research in Toxicology, Vol. 3, pp. 98-101 (1990). TPX purity was determined by LC and its concentration determined spectophotometrically. Hydroperoxide concentrations were determined by iodometric titration, as described by Kolthoff, et al., in "Quantitative Chemical Analysis", Macmillan, London, pp.842-860 (1969). MMBI, and BI were synthesized by published procedures as described by Doerge, D.R., Biochem, Vol. 27, pp. 3697-3700 (1988) and were recrystallized from aqueous ethanol. MeBI was purified by distillation and DMeBI^+ was synthesized and purified by recrystallization from ethyl acetate/methanol. 1-^13 C-MMBI was synthesized from ^13 CH3 I according to the procedure disclosed by Doerge, D.R., in, J. Lab. Comp. and Radiopharm., Vol.25, pp.985-990 (1988). PPHP and PPA were prepared, purified and analyzed as previously described by Doerge, Biochem, Vol.27, p.11 (1988). The methyl ester of 1-methyl-benzimidazole-2-sulfinic acid was prepared by addition of hydrogen peroxide (5 equivalents of a 10 M solution) to MMBI (0.1 M) in methanol. The products, MeBI and the ester, were obtained following preparative TLC on silica (Uniplate, Analtech Co., Newark, DL) using 5% methanol/chloroform as eluant.
The following experiment was performed to determine the effect of DMMBI oxidation on LPX activity. LPX (0.1 μM, final concentration) was incubated with hydrogen peroxide (100 μM), iodide ion (5 mM) and DMMBI (100 μM), as indicated in Table 2. After a 100 second incubation at 25° C., an aliquot was diluted 200-fold and the iodide ion oxidation activity determined. Values shown in Table 2, are averages +/- standard deviations (n=4) of the percentage relative to untreated LPX.

LPX [2] = biological target: T1, LPX; test: LPX-catalyzed iodide ion oxidation (triiodide formation); assay type: biochemical, bovine; conditions: LPX, H2O2, iodide ion
Source text: as §1, with “The products, MeBI and the ester, were obtained following preparative TLC on silica (Uniplate, Analtech Co., Newark, DL) using 5% methanol/chloroform as eluant.” left out
Inhibition of LPX activity by thiones was determined from the kinetics of iodide ion, guaiacol or ABTS oxidation assays conducted at 25° C. Kinetic parameters of suicide inactivation were determined as previously described. […]

With `CN1CCN(C)C1=S` [DMIT, 1,3-dimethylimidazolidine-2-thione] the “selectivity for iodide ion oxidation” value (LPX and TPX; alternate substrate mechanism) was “block only reactions involving iodide ion oxidation”, the suicide inhibition (LPX and TPX; summary of own examples) was “not suicide inhibitors” and the “effect on triiodide formation” value (peroxidase) was “substantially the same as reported for DMMBI in Example 1 and Ac2 MBI in Example 2”. The “loss of enzymatic activity” value (LPX [1]) was “did not cause any loss of enzymatic activity” and the “inhibition of iodide ion oxidation (triiodide formation)” value (LPX [2]) was “Identical results”.
